# Reference: ChEMBL document CHEMBL6109135, “Development of Diphenyl-1,2,4-Oxadiazole Analogues as Allosteric Modulators of the RXFP3 Receptor: Evaluation of Importance of the N-Substituted-2-Pyrrolidone Moiety in RLX-33” (J Med Chem, 2025)
# pIC50: −log10 of the molar value.
# Experiments:
# Relaxin-3 receptor 1 [1] = target: T1, Relaxin-3 receptor 1 (Homo sapiens, UniProt Q9NSD7); assay: Negative allosteric modulation of human RXFP3 receptor expressed in CHO-K1 cell membrane assessed as inhibition of relaxin-3-induced stimulation of [35S]GTPgammaS binding followed by relaxin-3 addition and measured after 1 hr; assay type: functional, cell membranes
# T1 sequence (Q9NSD7 whole entry): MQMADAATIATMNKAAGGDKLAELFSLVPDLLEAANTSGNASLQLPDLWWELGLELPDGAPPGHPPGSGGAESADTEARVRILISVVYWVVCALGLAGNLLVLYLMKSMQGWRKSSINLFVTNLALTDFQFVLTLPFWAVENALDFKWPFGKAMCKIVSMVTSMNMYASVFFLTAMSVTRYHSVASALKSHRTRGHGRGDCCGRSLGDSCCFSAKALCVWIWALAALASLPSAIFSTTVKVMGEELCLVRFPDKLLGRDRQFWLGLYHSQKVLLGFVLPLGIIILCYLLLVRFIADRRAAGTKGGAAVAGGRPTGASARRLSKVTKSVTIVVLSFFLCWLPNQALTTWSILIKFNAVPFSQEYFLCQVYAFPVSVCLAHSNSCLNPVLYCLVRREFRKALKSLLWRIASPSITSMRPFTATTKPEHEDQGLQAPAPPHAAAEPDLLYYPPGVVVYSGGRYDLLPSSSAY
# [2] = Kinetic solubility of compound in PBS at pH 7.4 incubated under agitation for 2 hrs by LC-MS/MS analysis; assay type: physicochemical
# [3] = Metabolic stability in rat liver microsomes assessed as half life measured up to 45 mins by LC-MS/MS analysis; assay type: ADME, Microsome
# Relaxin-3 receptor 1 [4] = target: T1, Relaxin-3 receptor 1; assay: Negative allosteric modulation of human RXFP3 receptor expressed in CHO-K1 cells assessed as cAMP accumulation incubated for 30 mins in presence of forskolin by TR-FRET assay; assay type: functional, cell-based
# [5] = Efflux ratio of apparent permeability across basolateral to apical over apical to basolateral side in MDCK-MDR1 cells at 10 uM incubated for 30 to 90 mins; assay type: ADME, cell-based, Canis lupus familiaris; conditions: dog, time 30-90 min
# [6] = Metabolic stability in rat liver microsomes assessed as clearance measured up to 45 mins by LC-MS/MS analysis; assay type: ADME, Microsome; conditions: 0.75 h
# [7] = Apparent permeability of compound across basolateral to apical side in MDCK-MDR1 cells at 10 uM incubated for 30 to 90 mins; assay type: ADME, cell-based, Canis lupus familiaris; conditions: dog
# [8] = Apparent permeability compound across apical to basolateral side in MDCK-MDR1 cells at 10 uM incubated for 30 to 90 mins; assay type: ADME, cell-based, Canis lupus familiaris; conditions: dog
# Relaxin-3 receptor 2 = Relaxin-3 receptor 2 (Homo sapiens, UniProt Q8TDU9); assay: Negative allosteric modulation of human RXFP4 receptor expressed in CHO-K1 cells assessed as cAMP accumulation incubated for 30 mins by TR-FRET assay; assay type: functional, cell-based
# Relaxin receptor 1 = target: T2, Relaxin receptor 1 (Homo sapiens, UniProt Q9HBX9); assay: Negative allosteric modulation of human RXFP1 receptor expressed in CHO-K1 cells assessed as cAMP accumulation incubated for 30 mins by TR-FRET assay; assay type: functional, cell-based
# T2 sequence (Q9HBX9 whole entry): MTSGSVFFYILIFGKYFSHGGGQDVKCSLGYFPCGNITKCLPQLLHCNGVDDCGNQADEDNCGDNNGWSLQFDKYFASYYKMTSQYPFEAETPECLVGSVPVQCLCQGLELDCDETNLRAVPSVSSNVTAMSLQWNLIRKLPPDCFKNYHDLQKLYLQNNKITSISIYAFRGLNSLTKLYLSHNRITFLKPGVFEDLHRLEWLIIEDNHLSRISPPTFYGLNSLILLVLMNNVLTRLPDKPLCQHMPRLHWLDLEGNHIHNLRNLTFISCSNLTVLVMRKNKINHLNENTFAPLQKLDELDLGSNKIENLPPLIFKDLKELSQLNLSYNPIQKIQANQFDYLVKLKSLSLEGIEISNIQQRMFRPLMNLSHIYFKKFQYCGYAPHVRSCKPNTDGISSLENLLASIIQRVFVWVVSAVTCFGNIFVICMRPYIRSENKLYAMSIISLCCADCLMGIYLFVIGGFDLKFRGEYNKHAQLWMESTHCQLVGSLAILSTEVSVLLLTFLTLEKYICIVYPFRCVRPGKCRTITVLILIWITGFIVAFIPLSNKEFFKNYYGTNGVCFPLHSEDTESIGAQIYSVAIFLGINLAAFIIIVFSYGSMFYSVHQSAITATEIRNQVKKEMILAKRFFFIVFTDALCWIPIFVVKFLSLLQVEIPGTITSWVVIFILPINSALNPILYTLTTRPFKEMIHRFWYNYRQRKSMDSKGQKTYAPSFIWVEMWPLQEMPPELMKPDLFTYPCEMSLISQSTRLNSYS
# [9] = Tmax in female Wistar rat brain at 10 mg/kg, ip measured 24 hrs post dose by LC-MS/MS analysis; assay type: ADME, organism-based; conditions: in vivo
# [10] = AUClast in male Wistar rat plasma at 10 mg/kg, ip administrated as single dose and measured 24 hrs post dose by LC-MS/MS analysis; assay type: ADME, organism-based
# [11] = Brain concentration in female Wistar rat at 10 mg/kg, ip measured after 24 hrs; assay type: ADME, organism-based; conditions: in vivo
# [12] = Plasma protein binding in Wistar rat at 1 uM incubated for 6 hrs by LC-MS/MS analysis; assay type: ADME, cell-free
# [13] = Tmax in male Wistar rat plasma at 10 mg/kg, ip administrated as single dose and measured 24 hrs post dose by LC-MS/MS analysis; assay type: ADME, organism-based; conditions: in vivo
# [14] = Half life in female Wistar rat plasma at 10 mg/kg, ip administrated as single dose and measured 24 hrs post dose by LC-MS/MS analysis; assay type: ADME, organism-based; conditions: in vivo
# [15] = Cmax in female Wistar rat brain at 10 mg/kg, ip measured 24 hrs post dose by LC-MS/MS analysis; assay type: ADME, organism-based
# [16] = Half life in male Wistar rat plasma at 10 mg/kg, ip administrated as single dose and measured 24 hrs post dose by LC-MS/MS analysis; assay type: ADME, organism-based; conditions: in vivo
# [17] = Clearance in male Wistar rat plasma at 10 mg/kg, ip administrated as single dose and measured 24 hrs post dose by LC-MS/MS analysis; assay type: ADME, organism-based
# [18] = AUClast in female Wistar rat plasma at 10 mg/kg, ip administrated as single dose and measured 24 hrs post dose by LC-MS/MS analysis; assay type: ADME, organism-based
# [19] = Cmax in female Wistar rat plasma at 10 mg/kg, ip administrated as single dose and measured 24 hrs post dose by LC-MS/MS analysis; assay type: ADME, organism-based; conditions: in vivo
# [20] = Clearance in female Wistar rat plasma at 10 mg/kg, ip administrated as single dose and measured 24 hrs post dose by LC-MS/MS analysis; assay type: ADME, organism-based
# [21] = Cmax in male Wistar rat brain at 10 mg/kg, ip measured 24 hrs post dose by LC-MS/MS analysis; assay type: ADME, organism-based
# [22] = AUClast in female Wistar rat brain at 10 mg/kg, ip measured 24 hrs post dose by LC-MS/MS analysis; assay type: ADME, organism-based
# [23] = AUClast in male Wistar rat brain at 10 mg/kg, ip measured 24 hrs post dose by LC-MS/MS analysis; assay type: ADME, organism-based
# [24] = Brain concentration in male Wistar rat at 10 mg/kg, ip measured after 24 hrs; assay type: ADME, organism-based; conditions: in vivo
# [25] = Tmax in male Wistar rat brain at 10 mg/kg, ip measured 24 hrs post dose by LC-MS/MS analysis; assay type: ADME, organism-based; conditions: in vivo
# [26] = Tmax in female Wistar rat plasma at 10 mg/kg, ip administrated as single dose and measured 24 hrs post dose by LC-MS/MS analysis; assay type: ADME, organism-based; conditions: in vivo
# [27] = Cmax in male Wistar rat plasma at 10 mg/kg, ip administrated as single dose and measured 24 hrs post dose by LC-MS/MS analysis; assay type: ADME, organism-based; conditions: in vivo
# [28] = mdck-mdr1, 10 µM, time 30-90 min
# Sequence of Relaxin-3 receptor 2 (Q8TDU9 whole entry): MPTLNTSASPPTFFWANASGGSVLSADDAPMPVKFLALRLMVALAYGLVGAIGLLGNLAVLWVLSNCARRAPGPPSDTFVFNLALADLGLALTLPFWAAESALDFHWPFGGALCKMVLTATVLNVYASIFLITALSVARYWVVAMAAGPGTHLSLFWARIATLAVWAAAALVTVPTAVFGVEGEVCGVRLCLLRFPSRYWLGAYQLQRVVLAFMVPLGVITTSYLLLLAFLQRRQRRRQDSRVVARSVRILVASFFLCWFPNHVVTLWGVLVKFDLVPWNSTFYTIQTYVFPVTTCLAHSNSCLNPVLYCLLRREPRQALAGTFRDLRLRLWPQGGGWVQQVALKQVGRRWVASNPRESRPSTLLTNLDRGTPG
smiles,measurement,setting,value
O=C(Nc1ccc(-c2nc(-c3ccc(Cl)cc3)no2)cc1)C1CC(=O)N(Cc2cccnc2)C1 (stereo not given),pIC50,Relaxin-3 receptor 1 [1],5.58
O=C(Nc1ccc(-c2nc(-c3ccc(Cl)cc3)no2)cc1)C1CC(=O)N(Cc2ccco2)C1 (stereo not given),pIC50,Relaxin-3 receptor 1 [1],5.52
same,solubility kinetic at 2 h,"[2]; PBS, pH 7.4, read-out: Kinetic_solubility",< 1 µM
same,half-life,[3]; liver microsomes,0.177 h
same,pIC50,Relaxin-3 receptor 1 [4]; cho-k1,5.63
same,efflux ratio at 10 µM,[5],1
same,CLH,[6],132 µL/min/mg
same,Papp B→A at 10 µM,"[7]; MDCK-MDR1, time 30-90 min",13 nm/s
same,Papp A→B at 10 µM,"[8]; MDCK-MDR1, time 30-90 min",13 nm/s
CNCC(=O)Nc1ccc(-c2nc(-c3ccc(Cl)cc3)no2)cc1,pIC50,Relaxin-3 receptor 1 [1],5.58
O=C(Nc1ccc(-c2nc(-c3ccc(Cl)cc3)no2)cc1)C1CC(=O)N(CC2CCNCC2)C1 (stereo not given),pIC50,Relaxin-3 receptor 1 [1],6.15
CNCCCN1CC(C(=O)Nc2ccc(-c3nc(-c4ccc(Cl)cc4)no3)cc2)CC1=O (stereo not given),pIC50,Relaxin-3 receptor 1 [1],5.93
CNCCN1CCC(C(=O)Nc2ccc(-c3nc(-c4ccc(Cl)cc4)no3)cc2)CC1,pIC50,Relaxin-3 receptor 2,4.84
same,pIC50,Relaxin receptor 1,< 4.00
CNCCCC(=O)Nc1ccc(-c2nc(-c3ccc(Cl)cc3)no2)cc1,pIC50,Relaxin-3 receptor 1 [1],5.68
CNCCN1CC(C(=O)Nc2ccc(-c3nc(-c4ccc(Cl)cc4)no3)cc2)CC1=O (stereo not given),pIC50,Relaxin-3 receptor 2,4.46
same,pIC50,Relaxin receptor 1,< 4.00
O=C(Nc1ccc(-c2nc(-c3ccc(Cl)cc3)no2)cc1)[C@@H]1CC(=O)N(C[C@@H]2CCCNC2)C1,Tmax,[9],2 h
same,AUC(0-t) at 24 h,[10],7.37 µg·h/mL
same,Drug uptake,[11],Active
same,PPB,[12],98%
same,Tmax,[13],0.5 h
same,t1/2,[14],10 h
same,Cmax,[15],0.157 µg/mL
same,Kinetic_solubility,"[2]; buffer, pH 7.4, 2 h",10.1 µM
same,t1/2,"[3]; microsomes, 0.75 h",3.42 h
same,pIC50,Relaxin-3 receptor 2,< 4.00
same,t1/2,[16],12 h
same,CL/F,[17],1.08 L/h/kg
same,pIC50,Relaxin receptor 1,< 4.00
same,AUC(0-t) at 24 h,[18],8.13 µg·h/mL
same,Cmax,[19],2.117 µg/mL
same,CL/F,[20],1.08 L/h/kg
same,CLH,[6],6.8 µL/min/mg
same,Papp,[7]; [28],3.1 10^-6 cm/s
same,Cmax,[21],0.185 µg/mL
same,AUC(0-t) at 24 h,[22],1.93 µg·h/mL
same,AUC(0-t) at 24 h,[23],3.27 µg·h/mL
same,Drug uptake,[24],Active
same,Papp,[8]; [28],1.1 10^-6 cm/s
same,Tmax,[25],1 h
same,Tmax,[26],0.5 h
same,Cmax,[27],2.121 µg/mL
CNCCC(=O)Nc1ccc(-c2nc(-c3ccc(Cl)cc3)no2)cc1,pIC50,Relaxin-3 receptor 1 [1],5.98
same,pIC50,Relaxin-3 receptor 2,5.31
same,pIC50,Relaxin-3 receptor 1 [4],6.23
same,pIC50,Relaxin receptor 1,4.71
NCCN1CC(C(=O)Nc2ccc(-c3nc(-c4ccc(Cl)cc4)no3)cc2)CC1=O (stereo not given),pIC50,Relaxin-3 receptor 1 [1],5.84
O=C(Nc1ccc(-c2nc(-c3ccc(Cl)cc3)no2)cc1)C1CC(=O)N(CC2CCCCN2)C1 (racemic),pIC50,Relaxin-3 receptor 1 [1],6.02
O=C(Nc1ccc(-c2nc(-c3ccc(Cl)cc3)no2)cc1)C1CC(=O)N(CC2CCNC2)C1 (racemic),pIC50,Relaxin-3 receptor 1 [1],5.77
